Test results from US20110045101A1, “FUNGICIDAL SUBSTITUTED AZOLES” (E.I. Du Pont De Nemours and Company, priority 2009, published 2011).
Marks after values point to notes of the source that are not given here.

How the values were obtained:
Assay type in all cases: in vivo
Conditions in all cases: 100 = 100% disease control
[1] = test system: Puccinia recondita f. sp. tritici; test: Test I: wheat leaf rust on wheat seedlings, sprayed the day before inoculation, visual disease rating
Summary of the method: (§1)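 Plants received a run-off spray at 200 ppm (equivalent to 500 g/ha) or, for starred values, 40 ppm. Formulation used acetone at 3% of volume in a 50/50 acetone/water mix carrying 250 ppm Trem® 014.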

[2] = test system: Erysiphe graminis f. sp. tritici; test: Test J: wheat powdery mildew on wheat seedlings, sprayed the day before inoculation, visual disease rating
Summary of the method: as §1

[3] = test system: Puccinia recondita f. sp. tritici; test: Test H: wheat leaf rust, test suspension sprayed after inoculation of wheat seedlings, visual disease rating
Summary of the method: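 Wheat seedlings inoculated with P. recondita spores, held 24 h saturated at 20 °C, then 2 days in growth chamber at 20 °C; compound suspension (acetone/water with Trem 014) sprayed to run-off afterwards. Rated visually; 200 ppm (≈500 g/ha) unless marked *, which denotes 40 ppm.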

Septoria tritici = test: Test G: wheat leaf blotch on wheat seedlings, sprayed the day before inoculation, visual disease rating
Summary of the method: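 Compounds dissolved in acetone (3% of final volume), then suspended in 50/50 acetone/water with 250 ppm Trem® 014 and sprayed to run-off on seedlings at 200 ppm (≈500 g/ha) or 40 ppm where marked. Inoculation with spores followed next day; visual rating after 48 h saturated at 24° C plus 19 days at 20° C.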

Alternaria solani = test: Test D: tomato early blight, sprayed the day before inoculation, visual disease rating
Summary of the method: as §1

Botrytis cinerea = test: Test C: tomato Botrytis on tomato seedlings, sprayed the day before inoculation, visual disease rating
Summary of the method: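 Rate: 200 ppm sprayed to run-off, corresponding to 500 g/ha; flagged values used 40 ppm. Vehicle was aqueous acetone (1:1) plus 250 ppm surfactant, compounds predissolved in acetone at 3% of volume. Plants were tomato seedlings.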

Septoria nodorum = test: Test F: wheat glume blotch on wheat seedlings, sprayed the day before inoculation, visual disease rating
Summary of the method: as §1

[4] = 200 ppm, 0 = no control relative to controls

Row | SMILES | Test I disease control rating ([1]; 40 ppm (marked *)) | Test J disease control rating ([2]; 40 ppm (marked *)) | Test H disease control rating ([3]; 40 ppm (marked *)) | Test G disease control rating (Septoria tritici; 40 ppm (marked *)) | Test D disease control rating (Alternaria solani; 40 ppm (marked *)) | Test C disease control rating (Botrytis cinerea; 40 ppm (marked *)) | Test F disease control rating (Septoria nodorum; 40 ppm (marked *)) | Test I disease control rating [1, 4] [%] | Test J disease control rating [2, 4] [%] | Test H disease control rating [3, 4] [%] | Test G disease control rating (Septoria tritici; [4]) [%] | Test D disease control rating (Alternaria solani; [4]) [%] | Test C disease control rating (Botrytis cinerea; [4]) [%] | Test F disease control rating (Septoria nodorum; [4]) [%]
1 | COc1cc(F)c(-n2c(Br)nc(C)c2-c2ccc(C)cc2)c(F)c1 [compound 525] | 100* % | 98* % | 68* % | 98* % | 100* % | 100* % | 80* % |  |  |  |  |  |  | 
2 | COc1ccc(F)c(-c2c(C)nc(Cl)n2-c2ccc(Cl)cc2)c1F [compound 526] |  |  |  |  |  |  |  | 100 | 100 | 0 | 99 | 100 | 100 | 100
3 | COc1ccc(F)c(-c2c(Cl)ncn2-c2ccc(C#N)cc2)c1F [compound 527] |  |  |  |  |  |  |  | 91 | 88 | 37 | 95 | 99 | 100 | 0
4 | COc1ccc(F)c(-c2c(Cl)ncn2-c2ccc(Br)cc2)c1F [compound 528] |  |  |  |  |  |  |  | 96 | 100 | 15 | 99 | 100 | 100 | 99
5 | Cc1nc(Cl)c(-c2c(F)cccc2F)n1-c1ccc(SCCl)cc1 [compound 529] |  |  |  |  |  |  |  | 48 | 0 | 9 | 82 | 0 | 0 | 0
6 | Cc1ncc(Cc2c(F)cc(F)cc2F)n1-c1ccc(Cl)cc1 [compound 530] |  |  |  |  |  |  |  | 88 | 71 | 0 | 58 | 0 | 0 | 0
7 | Cc1nc(Cl)c(Cc2c(F)cc(F)cc2F)n1-c1ccc(Cl)cc1 [compound 531] |  |  |  |  |  |  |  | 99 | 95 | 41 | 99 | 0 | 100 | 0
8 | Cc1nc(Br)c(Cc2c(F)cc(F)cc2F)n1-c1ccc(Cl)cc1 [compound 532] |  |  |  |  |  |  |  | 99 | 91 | 0 | 99 | 0 | 97 | 0
9 | COc1cc(OC)cc(-n2c(Cc3c(F)cc(F)cc3F)cnc2C)c1 [compound 533] |  |  |  |  |  |  |  | 92 | 82 | 15 | 49 | 0 | 0 | 0
10 | COc1cc(OC)cc(-n2c(C)nc(Cl)c2Cc2c(F)cc(F)cc2F)c1 [compound 534] |  |  |  |  |  |  |  | 0 | 0 | 0 | 2 | 0 | 38 | 0
11 | COc1cc(OC)cc(-n2c(C)nc(Br)c2Cc2c(F)cc(F)cc2F)c1 [compound 535] |  |  |  |  |  |  |  | 0 | 0 | 0 | 2 | 0 | 0 | 0
12 | Cc1ncc(Cc2c(F)cc(F)cc2F)n1-c1c(Cl)cccc1Cl [compound 536] |  |  |  |  |  |  |  | 98 | 98 | 37 | 90 | 68 | 89 | 0
13 | Cc1nc(Cl)c(Cc2c(F)cc(F)cc2F)n1-c1c(Cl)cccc1Cl [compound 537] |  |  |  |  |  |  |  | 100 | 99 | 9 | 97 | 76 | 99 | 60
14 | Cc1nc(Br)c(Cc2c(F)cc(F)cc2F)n1-c1c(Cl)cccc1Cl [compound 538] |  |  |  |  |  |  |  | 100 | 100 | 27 | 99 | 0 | 99 | 0
15 | Cc1ncc(Cc2c(F)cc(F)cc2F)n1-c1cc(Cl)cc(Cl)c1 [compound 539] |  |  |  |  |  |  |  | 93 | 95 | 0 | 7 | 0 | 36 | 0
16 | Cc1nc(Cl)c(Cc2c(F)cc(F)cc2F)n1-c1cc(Cl)cc(Cl)c1 [compound 540] |  |  |  |  |  |  |  | 0 | 21 | 0 | 3 | 0 | 15 | 0
17 | Cc1nc(Br)c(Cc2c(F)cc(F)cc2F)n1-c1cc(Cl)cc(Cl)c1 [compound 541] |  |  |  |  |  |  |  | 0 | 0 | 0 | 0 | 0 | 0 | 0
18 | COc1cc(F)c(-c2c(Cl)nc(Br)n2-c2ccc(C)c(Cl)c2)c(F)c1 [compound 542] | 98* % | 89* % | 0* % | 97* % | 96* % | 99* % | 0* % |  |  |  |  |  |  | 
19 | Cc1nc(C)n(-c2ccc(F)cc2Cl)c1-c1ccc(Cl)c(F)c1 [compound 543] | 95* % | 0* % | 0* % | 97* % | 60* % | 99* % | 0* % |  |  |  |  |  |  | 
20 | COc1cc(F)c(-c2c(Cl)nc(Br)n2-c2cccc(OC(F)F)c2)c(F)c1 [compound 545] |  |  |  |  |  |  |  | 100 | 99 | 27 | 99 | 100 | 100 | 98
21 | COc1cc(F)c(-c2c(Cl)nc(Br)n2-c2ccc(OC(F)F)cc2)c(F)c1 [compound 546] |  |  |  |  |  |  |  | 100 | 100 | 0 | 98 | 100 | 100 | 99
22 | COc1cc(F)c(-c2c(Cl)nc(Br)n2-c2cccc(OC(F)(F)F)c2)c(F)c1 [compound 547] |  |  |  |  |  |  |  | 99 | 100 | 0 | 97 | 88 | 99 | 60
23 | COc1cc(F)c(-c2c(Cl)nc(Br)n2-c2ccc(OC(F)(F)F)cc2)c(F)c1 [compound 548] |  |  |  |  |  |  |  | 99 | 100 | 0 | 96 | 100 | 98 | 94
24 | COc1ccc(Cl)c(-c2c(Cl)nc(C)n2-c2ccc(Cl)cc2)c1F [compound 550] |  |  |  |  |  |  |  | 99 | 100 | 0 | 97 | 100 | 100 | 100
25 | COc1ccc(F)c(-c2c(Cl)nc(Br)n2-c2ccc(C)c(F)c2)c1F [compound 551] |  |  |  |  |  |  |  | 100 | 100 | 0 | 98 | 100 | 100 | 96
